The results in this text go back to patent US20080207638A1, “Compounds” (priority 2005, published 2008).

Series [1] is described as follows: Dog pharmacokinetics. It is filed as in vivo, male Beagle dogs. To be noted: 1 mg/kg i.v., 2 mg/kg oral. The method, then:
Compounds were dosed to male Beagle dogs by single intravenous or oral administration at a nominal dose level of 1 mgkg^−1 and 2 mgkg^−1 respectively. The study was carried out according to a crossover design such that the same dog was used for both dosing events and the dosing events occurred 1 week apart. Compounds were formulated in 5%DMSO/45%Peg2oO/50%water. An intravenous profile was obtained by taking serial blood samples at 0.083, 0.25, 0.5, 0.75, 1, 2, 4, 6 & 12 h post-dose. An oral profile was obtained by taking serial blood samples at 0.25, 0.5, 0.75, 1, 2, 4, 6, 12 & 24 h post-dose. Blood samples were taken directly into heparinised tubes. Blood samples were prepared by protein precipitation and subjected to quantitative analysis by LC-MS/MS using compound-specific mass transitions. Drug concentration-time profiles were generated and non-compartmental PK analysis used to generate estimates of half-life, clearance, volume of distribution and oral bioavailability.

Series [2] is described as follows: Rat pharmacokinetics. It is filed as in vivo, male CD Sprague Dawley rats. To be noted: 1 mg/kg i.v., 3 mg/kg oral. As to the method: Compounds were dosed to male CD Sprague Dawley rats by single intravenous or oral administration at a nominal dose level of 1 mgkg^−1 and 3 mgkg^−1 respectively. Compounds were formulated in 5% DMSO/45% PEG200/50% water. An intravenous profile was obtained by taking serial or terminal blood samples at 0.083, 0.25, 0.5, 1, 2, 4, and 7 h post-dose. An oral profile was obtained by taking serial or terminal blood samples at 0.25, 0.5, 1, 2, 4, 7 and 12 h post-dose. Blood samples were taken directly into heparinised tubes. Blood samples were prepared by protein precipitation and subjected to quantitative analysis by LC-MS/MS using compound-specific mass transitions. Drug concentration-time profiles were generated and non-compartmental PK analysis used to generate estimates of half-life, clearance, volume of distribution and oral bioavailability.

A short description of series [3]: CNS penetration. It is filed as in vivo, male CD Sprague Dawley rats. To be noted: male, CD Sprague Dawley, iv; rat, 1 mg/kg i.v., brain 5 min post-dose. As to the method: Compounds were dosed intravenously at a nominal dose level of 1 mgkg−1 to male CD Sprague Dawley rats. Compounds were formulated in 5% DMSO/45% PEG200/50% water. Blood samples were taken under terminal anaesthesia with isoflurane at 5 min post-dose and the brains were also removed for assessment of brain penetration. Blood samples were taken directly into heparinised tubes. Blood samples were prepared for analysis using protein precipitation and brain samples were prepared using extraction of drug from brain by homogenisation and subsequent protein precipitation. The concentration of parent drug in blood and brain extracts was determined by quantitative LC-MS/MS analysis using compound-specific mass transitions.

Structures are written as SMILES. Where a name gives a salt, the structure may show the parent alone.

`C[C@@H]1CCCN1CCCOc1ccc(N2CCN(C(=O)c3ccc(F)cc3F)CC2=O)cc1` [Example E1, 4-[(2,4-Difluorophenyl)carbonyl]-1-[4-({3-[(2R)-2-methyl-1-pyrrolidinyl]propyl)oxy)phenyl]-2-piperazinone, formate salt]: the oral bioavailability entry in series [1] is “approximately 100 % F”; in series [2] it was “approximately 48 % F”. Besides, in series [3], the concentration at 5 min was roughly 57.5 ng/g.
